pIC50: −log10 of the molar value.
How the values were obtained:
[1] = molecular target: Aldo-keto reductase family 1 member B1 (Rattus norvegicus, UniProt P07943); experiment: Tested for in vitro inhibition activity against rat Aldose reductase (AR)
[2] = molecular target: Aldo-keto reductase family 1 member B1 (Homo sapiens, UniProt P15121); experiment: Tested for in vitro inhibition activity against human Aldose reductase (human AR)
[3] = molecular target: T1, Aldo-keto reductase family 1 member A1 (Homo sapiens, UniProt P14550); experiment: Tested for in vitro inhibition activity against human aldehyde reductase (AHR)
T1 sequence (P14550 whole entry): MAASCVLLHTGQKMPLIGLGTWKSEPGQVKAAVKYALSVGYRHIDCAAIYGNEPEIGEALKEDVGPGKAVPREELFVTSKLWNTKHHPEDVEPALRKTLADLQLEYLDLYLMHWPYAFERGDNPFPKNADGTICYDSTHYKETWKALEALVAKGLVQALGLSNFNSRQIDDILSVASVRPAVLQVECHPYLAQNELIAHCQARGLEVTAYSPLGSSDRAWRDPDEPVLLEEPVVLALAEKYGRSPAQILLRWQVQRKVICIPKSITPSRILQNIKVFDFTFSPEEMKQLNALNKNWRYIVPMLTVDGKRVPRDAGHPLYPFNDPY

Compound | pIC50 [1] | pIC50 [2] | pIC50 [3]
NC(=O)[C@H]1C[C@]2(NC(=O)NC2=O)c2cc(F)ccc2O1 | 6.24 | – | –
NC(=O)[C@@H]1C[C@]2(NC(=O)NC2=O)c2cc(F)ccc2O1 | 7.46 | 8.05 | 5.92
